Experimental data from paper PMC4978154, “Phase I metabolites of mephedrone display biological activity as substrates at monoamine transporters” (British Journal of Pharmacology, 2016).
Where “and” joins values, the source holds several entries; their conditions need not be identical. Identical values can stand only once.

Key:
Format in all cases: cell-based
hDAT [1] = target: T1, hDAT (Homo sapiens, UniProt Q01959); test: Transporter uptake inhibition in HEK293 cells expressing hDAT; conditions: [3H]-MPP+ uptake
T1 construct: expressed in transfected cells
Procedure: (§1) The generation of HEK293 cells stably expressing the human isoforms of DAT (hDAT) and NET (hNET) was carried out as described previously (Scholze et al., 2002). For SERT, the human isoform (hSERT) was cloned in frame with yellow fluorescent protein (Schmid et al., 2001). The generation of a stable cell line was performed as described by Hilber and colleagues (Hilber et al., 2005). HEK293 cells were maintained in humidified atmosphere (5% CO2, 37°C) in DMEM, supplemented with 10% heat‐inactivated FBS and penicillin (100 u 100 mL^−1) and streptomycin (100 μg 100 mL^−1). Selection pressure was maintained by adding geneticin (50 μg·mL^−1) to the cell culture media.
(§2) Uptake experiments were conducted as described previously (Sitte et al., 2001) with minor modifications. In brief, HEK293 cells expressing hDAT, hNET or hSERT were seeded into poly‐D‐lysine (PDL) coated 96‐well plates at a density of 40 000 cells per well. The next day, DMEM was aspirated and replaced with Krebs HEPES buffer (KHB, 25 mM HEPES, 120 mM NaCl, 5 mM KCl, 1.2 mM CaCl2, and 1.2 mM MgSO4, 5 mM D‐glucose, pH adjusted to 7.3 with NaOH) (200 μL per well), and cells were pre‐incubated with various concentrations of mephedrone or its metabolites for 5 min (50 μL per well). Subsequently, 0.1 μM of [^3H]‐5‐HT or 0.02 μM of [^3H]‐MPP^+ were added, and uptake was terminated after 1 (hSERT) or 3 min (hDAT, hNET) by washing the cells with 200 μL of ice‐cold KHB. Cells were lysed with 1% SDS, and tritium uptake was determined by scintillation counting. Nonspecific uptake was determined in the presence of 10 μM paroxetine (hSERT) or 10 μM mazindol (hDAT and hNET).
(§3) Calculations were performed using Microsoft Excel® 2010 (Microsoft Corporation, Redmond, WA, USA) and GRAPHPAD PRISM 5.0. (GraphPad Software Inc., La Jolla, CA, USA). IC50 values for uptake inhibition and EC50 values for release were determined by nonlinear regression fits. Release data expressed as AUC were analysed by one‐way ANOVA followed by Bonferroni's multiple comparison test. Microdialysis and locomotor data were analysed by two‐way ANOVA (drug treatment × time) followed by Bonferroni's test. The effect of monensin treatment on basal efflux of tritiated substrate was analysed with the Mann–Whitney test. P values less than 0.05 (i.e. P < 0.05) were considered significant. The data and statistical analysis comply with the recommendations on experimental design and analysis in pharmacology (Curtis et al., 2015).

hNET [2] = target: T2, hNET (Homo sapiens, UniProt P23975); test: Transporter release (superfusion) assay in HEK293 cells expressing hNET; conditions: test drug 10 μM, monensin 10 μM; post hoc Bonferroni
T2 construct: expressed in transfected cells
Procedure: as §1
Superfusion experiments were performed as described previously (Scholze et al., 2002). Briefly, HEK293 cells expressing the desired transporter were seeded at a density of 40 000 cells per well onto poly‐D‐lysine‐coated 5 mm glass cover slips in 96‐well plates 24 h prior to the experiment. Cells were preloaded with [^3H]‐MPP^+ (0.1 μM, hDAT and hNET) or [^3H]‐5‐HT (0.4 μM, hSERT) for 20 min at 37°C in a final volume of 100 μL per well. Subsequently, glass coverslips were transferred into small superfusion chambers (volume of 200 μL) and superfused with KHB at 25°C with a superfusion rate of 0.7 mL·min^−1 for 40 min to establish a stable basal efflux. After washout, the collection of 2‐min fractions was initiated. After the first three basal fractions, monensin (10 μM) or solvent was added for four fractions. […] Finally, the cells were lysed in 1% SDS to determine the total radioactivity. Radioactivity per fraction was assessed by a liquid scintillation counter and expressed as fractional release, that is, the percentage of released ^3H in relation to total ^3H present at the beginning of the fraction (Sitte et al., 2000). For analysis, release was expressed as AUC.
as §3, with “(GraphPad Software Inc., La Jolla, CA, USA).” left out, “P values less than 0.05 (i.e. P < 0.05) were considered significant. The data and statistical analysis comply with the recommendations on experimental design and analysis in pharmacology (Curtis et al., 2015).” left out
Data from uptake inhibition assays cannot distinguish whether test drugs act as non‐transported inhibitors or transportable substrates, which evoke release (Scholze et al., 2000; Sitte et al., 2000; Baumann et al., 2013). […] As described previously, efflux of preloaded [^3H]‐MPP^+ or [^3H]‐5‐HT was monitored in the presence or absence of monensin (10 μM) (Scholze et al., 2000). […]

hNET [3] = target: T2, hNET; test: Transporter uptake inhibition in HEK293 cells expressing hNET; conditions: [3H]-MPP+ uptake
Procedure: as §1, §2
as §3, with “GRAPHPAD” left out

hSERT = target: T3, hSERT (Homo sapiens, UniProt P31645); test: Transporter uptake inhibition in HEK293 cells expressing hSERT; conditions: [3H]-5-HT uptake
T3 construct: yellow fluorescent protein (YFP); expressed in transfected cells
Procedure: as §1, §2, §3

hDAT [4] = target: T1, hDAT; test: Transporter release (superfusion) assay in HEK293 cells expressing hDAT
Procedure: as §1
Superfusion experiments were performed as described previously (Scholze et al., 2002). Briefly, HEK293 cells expressing the desired transporter were seeded at a density of 40 000 cells per well onto poly‐D‐lysine‐coated 5 mm glass cover slips in 96‐well plates 24 h prior to the experiment. Cells were preloaded with [^3H]‐MPP^+ (0.1 μM, hDAT and hNET) or [^3H]‐5‐HT (0.4 μM, hSERT) for 20 min at 37°C in a final volume of 100 μL per well. Subsequently, glass coverslips were transferred into small superfusion chambers (volume of 200 μL) and superfused with KHB at 25°C with a superfusion rate of 0.7 mL·min^−1 for 40 min to establish a stable basal efflux. After washout, the collection of 2‐min fractions was initiated. After the first three basal fractions, monensin (10 μM) or solvent was added for four fractions. Consequently, the cells were challenged with test drugs (10 μM) for five fractions in the presence or absence of monensin. Finally, the cells were lysed in 1% SDS to determine the total radioactivity. Radioactivity per fraction was assessed by a liquid scintillation counter and expressed as fractional release, that is, the percentage of released ^3H in relation to total ^3H present at the beginning of the fraction (Sitte et al., 2000). For analysis, release was expressed as AUC.
as §3
Data from uptake inhibition assays cannot distinguish whether test drugs act as non‐transported inhibitors or transportable substrates, which evoke release (Scholze et al., 2000; Sitte et al., 2000; Baumann et al., 2013). Therefore, mephedrone and its metabolites were tested in release assays to further explore their interaction with transporters. The release assays were performed with the same transporter‐expressing HEK293 cell lines described above and used a superfusion system (Sitte et al., 2000). As described previously, efflux of preloaded [^3H]‐MPP^+ or [^3H]‐5‐HT was monitored in the presence or absence of monensin (10 μM) (Scholze et al., 2000). […]

T1 sequence (Q01959 whole entry): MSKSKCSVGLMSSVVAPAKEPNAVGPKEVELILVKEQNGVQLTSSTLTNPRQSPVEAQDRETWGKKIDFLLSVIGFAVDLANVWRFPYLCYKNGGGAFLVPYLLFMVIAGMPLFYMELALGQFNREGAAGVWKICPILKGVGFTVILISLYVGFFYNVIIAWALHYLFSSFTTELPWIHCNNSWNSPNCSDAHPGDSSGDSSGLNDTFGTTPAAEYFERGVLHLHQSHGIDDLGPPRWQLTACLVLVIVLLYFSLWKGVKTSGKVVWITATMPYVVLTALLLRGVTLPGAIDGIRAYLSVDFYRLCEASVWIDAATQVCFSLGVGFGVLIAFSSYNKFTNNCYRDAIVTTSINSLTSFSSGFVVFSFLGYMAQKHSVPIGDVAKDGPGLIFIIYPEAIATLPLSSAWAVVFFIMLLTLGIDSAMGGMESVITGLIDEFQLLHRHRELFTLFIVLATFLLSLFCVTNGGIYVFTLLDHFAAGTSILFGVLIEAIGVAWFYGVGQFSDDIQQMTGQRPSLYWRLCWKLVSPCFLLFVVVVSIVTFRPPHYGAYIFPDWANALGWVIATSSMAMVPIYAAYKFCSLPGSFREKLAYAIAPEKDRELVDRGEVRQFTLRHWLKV
T2 sequence (P23975 whole entry, the tested form may be a part): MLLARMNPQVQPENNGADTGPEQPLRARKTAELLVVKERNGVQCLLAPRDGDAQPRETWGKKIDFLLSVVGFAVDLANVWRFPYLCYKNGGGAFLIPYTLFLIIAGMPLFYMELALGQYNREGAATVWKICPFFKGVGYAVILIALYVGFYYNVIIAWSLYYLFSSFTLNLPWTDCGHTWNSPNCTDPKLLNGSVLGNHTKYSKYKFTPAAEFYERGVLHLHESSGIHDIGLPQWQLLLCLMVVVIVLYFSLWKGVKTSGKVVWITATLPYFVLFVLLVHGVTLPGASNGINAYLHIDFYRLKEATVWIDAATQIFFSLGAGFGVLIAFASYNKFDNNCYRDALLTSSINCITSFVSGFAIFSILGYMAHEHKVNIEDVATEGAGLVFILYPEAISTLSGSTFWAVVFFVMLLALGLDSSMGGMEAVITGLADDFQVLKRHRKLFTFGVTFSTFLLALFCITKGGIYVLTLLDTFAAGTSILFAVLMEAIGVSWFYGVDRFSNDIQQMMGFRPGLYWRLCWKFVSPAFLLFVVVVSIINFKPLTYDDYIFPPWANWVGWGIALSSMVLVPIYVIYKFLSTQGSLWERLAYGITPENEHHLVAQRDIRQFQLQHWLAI
T3 sequence (P31645 whole entry): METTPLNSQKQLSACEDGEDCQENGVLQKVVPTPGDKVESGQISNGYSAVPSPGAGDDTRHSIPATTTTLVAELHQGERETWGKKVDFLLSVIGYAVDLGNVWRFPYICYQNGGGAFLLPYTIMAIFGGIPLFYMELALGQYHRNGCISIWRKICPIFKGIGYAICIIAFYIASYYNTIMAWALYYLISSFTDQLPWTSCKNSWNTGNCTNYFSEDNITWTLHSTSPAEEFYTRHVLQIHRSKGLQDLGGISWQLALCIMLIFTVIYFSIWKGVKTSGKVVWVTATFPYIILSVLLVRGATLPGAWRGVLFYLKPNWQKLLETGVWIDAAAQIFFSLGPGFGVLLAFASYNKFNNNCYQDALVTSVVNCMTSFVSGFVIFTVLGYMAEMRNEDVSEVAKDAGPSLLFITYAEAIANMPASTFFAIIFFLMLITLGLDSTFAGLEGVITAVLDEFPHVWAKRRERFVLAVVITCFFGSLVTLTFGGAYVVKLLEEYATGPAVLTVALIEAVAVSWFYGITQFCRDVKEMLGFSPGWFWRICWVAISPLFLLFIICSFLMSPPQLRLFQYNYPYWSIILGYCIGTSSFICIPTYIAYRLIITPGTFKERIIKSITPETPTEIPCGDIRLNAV

Row | SMILES | IC50 (hDAT [1]; IC50 on uptake mediated by hDAT, mean (95% confidence interval)) [µM] | efficacy of uptake inhibition at hDAT (hDAT [1]) | enhancement by monensin of drug-evoked [3H]-MPP+ release at hNET (AUC) (hNET [2]) | IC50 (hNET [3]; IC50 on uptake mediated by hNET, mean (95% confidence interval)) | efficacy of uptake inhibition at hNET (hNET [3]) | IC50 (hSERT; IC50 on uptake mediated by hSERT, mean (95% confidence interval)) [µM] | efficacy of uptake inhibition at hSERT (hSERT) | enhancement by monensin of drug-evoked [3H]-MPP+ release at hDAT (AUC) (hDAT [4]; test drug 10 μM, monensin 10 μM, post hoc Bonferroni) | effect of monensin alone on substrate release (basal efflux) (hDAT [4]; monensin 10 μM alone, P < 0.05, Mann–Whitney test)
1 | CNC(C)C(O)c1ccc(C)cc1.Cl (stereo not drawn) [Dihydromephedrone, 2‐(methylamino)‐1‐(p‐tolyl)propan‐1‐ol hydrochloride] | 24 | fully efficacious inhibitors of uptake | not | 24 µM and 23.5 µM | fully efficacious inhibitors of uptake | 65 | fully efficacious inhibitors of uptake | not | –
2 | CC[C@@]1([C@@H]2O[C@@H]([C@H]3O[C@@](O)(CO)[C@H](C)C[C@@H]3C)C[C@@H]2C)CC[C@H]([C@]2(C)CC[C@]3(C[C@H](O)[C@@H](C)[C@@H]([C@@H](C)[C@@H](OC)[C@H](C)C(=O)O)O3)O2)O1 [monensin, reference compound] | – | – | – | – | – | – | – | – | significant albeit modest increase
